{"source": "the supplement of paper PMC6045584", "note": "± gives the standard deviation of the averaged measurements."}
{"compound": "COc1cc2ncnc(Nc3ccc(F)c(Cl)c3)c2cc1OCCCN1CCOCC1 [GEFITINIB]", "assay": "surviving fraction relative to DMSO-only wells; higher = less growth inhibition", "conditions": "50 nM; exposure time: 5 days", "outline": "(§1)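 Continuous five-day exposure to inhibitors at 0.5, 1, 5, 10, 50, 100, 500 and 1000 nM started 24 hours after log-phase tumour cell lines were seeded at 250–500 cells per well in 384-well plates. Luminescence was read after 10 minutes at room temperature. Viability is given as surviving fraction, meaning CellTiter-Glo luminescence normalised to the median of DMSO-only wells.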"}
{"test system": "143B BONE", "surviving fraction": "1.14 ± 0.077"}
{"test system": "A549 LUNG", "surviving fraction": "1.05 ± 0.033"}
{"test system": "ASKA SYNOVIAL", "surviving fraction": "1.19 ± 0.077"}
{"test system": "BT20 BREAST", "surviving fraction": "1.06 ± 0.011"}
{"test system": "BT549 BREAST", "surviving fraction": "1.17 ± 0.14"}
{"test system": "CADOES1 SOFT TISSUE", "surviving fraction": "0.824 ± 0.12"}
{"test system": "CAL51 BREAST", "surviving fraction": "1.08 ± 0.035"}
{"test system": "CAL72 BONE", "surviving fraction": "1.11 ± 0.054"}
{"test system": "CAL120 BREAST", "surviving fraction": "1.016 ± 0.0095"}
{"test system": "CASKI CERVIX", "surviving fraction": "0.556 ± 0.015"}
{"test system": "CCK81 LARGE INTESTINE", "surviving fraction": "0.628 ± 0.091"}
{"test system": "CHLA90 AUTONOMIC GANGLIA", "surviving fraction": "0.902 ± 0.069"}
{"test system": "CME SYNOVIAL", "surviving fraction": "1.39 ± 0.12"}
{"test system": "COLO320DM LARGE INTESTINE", "surviving fraction": "1.14 ± 0.085"}
{"test system": "DU4475 BREAST", "surviving fraction": "0.879 ± 0.14"}
{"test system": "G292 BONE", "surviving fraction": "1.03 ± 0.052"}
{"test system": "H23 LUNG", "surviving fraction": "0.603 ± 0.075"}
{"test system": "HCC38 BREAST", "surviving fraction": "1.23 ± 0.13"}
{"test system": "HCC78 LUNG", "surviving fraction": "0.967 ± 0.12"}
{"test system": "HCC202 BREAST", "surviving fraction": "1.32 ± 0.14"}
{"test system": "HCC1806 BREAST", "surviving fraction": "1.04 ± 0.14"}
{"test system": "HMLE3 BREAST", "surviving fraction": "1.04 ± 0.051"}
{"test system": "HMT3552 BREAST", "surviving fraction": "0.946 ± 0.048"}
{"test system": "HOS BONE", "surviving fraction": "1.06 ± 0.033"}
{"test system": "HOSMNG BONE", "surviving fraction": "1.05 ± 0.085"}
{"test system": "HS57T BREAST", "surviving fraction": "1.05 ± 0.059"}
{"test system": "HSSYII SYNOVIAL", "surviving fraction": "1.03 ± 0.017"}
{"test system": "HT1080 SOFT TISSUE", "surviving fraction": "1.01 ± 0.029"}
{"test system": "HU09 BONE", "surviving fraction": "1.1 ± 0.018"}
{"test system": "HUO3N1 BONE", "surviving fraction": "1.08 ± 0.044"}
{"test system": "JIMT1 BREAST", "surviving fraction": "1.06 ± 0.027"}
{"test system": "LM7 BONE", "surviving fraction": "1.12 ± 0.013"}
{"test system": "LNCAP PROSTATE", "surviving fraction": "0.939 ± 0.032"}
{"test system": "MDAMB134 BREAST", "surviving fraction": "1.2 ± 0.2"}
{"test system": "MDAMB157 BREAST", "surviving fraction": "0.911 ± 0.1"}
{"test system": "MDAMB231 BREAST", "surviving fraction": "1.06 ± 0.027"}
{"test system": "MDAMB361 BREAST", "surviving fraction": "0.89 ± 0.14"}
{"test system": "MDAMB436 BREAST", "surviving fraction": "0.993 ± 0.12"}
{"test system": "MDAMB468 BREAST", "surviving fraction": "1.07 ± 0.099"}
{"test system": "MFM223 BREAST", "surviving fraction": "1.19 ± 0.058"}
{"compound": "COc1cc2ncnc(Nc3ccc(F)c(Cl)c3)c2cc1OCCCN1CCOCC1 [GEFITINIB]", "assay": "surviving fraction relative to DMSO-only wells; higher = less growth inhibition", "conditions": "100 nM; exposure time: 5 days", "outline": "as §1"}
{"test system": "22RV1 PROSTATE", "surviving fraction": "1.03 ± 0.15"}
{"test system": "93VU HEADNECK", "surviving fraction": "0.751 ± 0.034"}
{"test system": "143B BONE", "surviving fraction": "1.12 ± 0.054"}
{"test system": "A549 LUNG", "surviving fraction": "1.05 ± 0.051"}
{"test system": "ASKA SYNOVIAL", "surviving fraction": "1.16 ± 0.073"}
{"test system": "BT20 BREAST", "surviving fraction": "1.06 ± 0.013"}
{"test system": "BT549 BREAST", "surviving fraction": "1.21 ± 0.046"}
{"test system": "CADOES1 SOFT TISSUE", "surviving fraction": "0.942 ± 0.11"}
{"test system": "CAL51 BREAST", "surviving fraction": "1.02 ± 0.016"}
{"test system": "CAL72 BONE", "surviving fraction": "1.13 ± 0.098"}
{"test system": "CAL120 BREAST", "surviving fraction": "0.985 ± 0.031"}
{"test system": "CASKI CERVIX", "surviving fraction": "0.471 ± 0.011"}
{"test system": "CCK81 LARGE INTESTINE", "surviving fraction": "0.325 ± 0.12"}
{"test system": "CHLA90 AUTONOMIC GANGLIA", "surviving fraction": "0.876 ± 0.041"}
{"test system": "CME SYNOVIAL", "surviving fraction": "1.41 ± 0.17"}
{"test system": "COLO320DM LARGE INTESTINE", "surviving fraction": "1.2 ± 0.1"}
{"test system": "DU4475 BREAST", "surviving fraction": "0.906 ± 0.16"}
{"test system": "G292 BONE", "surviving fraction": "1.04 ± 0.04"}
{"test system": "H23 LUNG", "surviving fraction": "0.458 ± 0.053"}
{"test system": "HCC38 BREAST", "surviving fraction": "1.29 ± 0.03"}
{"test system": "HCC78 LUNG", "surviving fraction": "0.963 ± 0.067"}
{"test system": "HCC202 BREAST", "surviving fraction": "1.11 ± 0.37"}
{"test system": "HCC1806 BREAST", "surviving fraction": "0.925 ± 0.098"}
{"test system": "HMLE3 BREAST", "surviving fraction": "0.963 ± 0.07"}
{"test system": "HMT3552 BREAST", "surviving fraction": "0.94 ± 0.036"}
{"test system": "HOS BONE", "surviving fraction": "1.07 ± 0.031"}
{"test system": "HOSMNG BONE", "surviving fraction": "1.14 ± 0.026"}
{"test system": "HS57T BREAST", "surviving fraction": "1.02 ± 0.061"}
{"test system": "HSSYII SYNOVIAL", "surviving fraction": "1.03 ± 0.067"}
{"test system": "HT1080 SOFT TISSUE", "surviving fraction": "1.03 ± 0.028"}
{"test system": "HU09 BONE", "surviving fraction": "1.09 ± 0.075"}
{"test system": "HUO3N1 BONE", "surviving fraction": "1.05 ± 0.039"}
{"test system": "JIMT1 BREAST", "surviving fraction": "1.03 ± 0.046"}
{"test system": "LM7 BONE", "surviving fraction": "1.12 ± 0.1"}
{"test system": "LNCAP PROSTATE", "surviving fraction": "0.947 ± 0.03"}
{"test system": "MDAMB134 BREAST", "surviving fraction": "1.13 ± 0.023"}
{"test system": "MDAMB157 BREAST", "surviving fraction": "1.02 ± 0.053"}
{"test system": "MDAMB231 BREAST", "surviving fraction": "1.06 ± 0.037"}
{"test system": "MDAMB361 BREAST", "surviving fraction": "0.859 ± 0.15"}
{"test system": "MDAMB436 BREAST", "surviving fraction": "1.03 ± 0.084"}
{"test system": "MDAMB468 BREAST", "surviving fraction": "1.028 ± 0.01"}
{"test system": "MFM223 BREAST", "surviving fraction": "1.19 ± 0.092"}
{"compound": "COc1cc2ncnc(Nc3ccc(F)c(Cl)c3)c2cc1OCCCN1CCOCC1 [GEFITINIB]", "assay": "surviving fraction relative to DMSO-only wells; higher = less growth inhibition", "conditions": "500 nM; exposure time: 5 days", "outline": "as §1"}
{"test system": "22RV1 PROSTATE", "surviving fraction": "1.04 ± 0.17"}
